Source: PubChem BioAssay AID1259411 (Chemical Carcinogenesis Research Information System (CCRIS), 2018)
Calls of active or inactive are those of the source. No rule for the calls is given here.

Tested on: rodent carcinogenicity bioassays, tumor incidence
Assay: CCRIS carcinogenicity studies
Method in brief: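 NCI-built, expert-reviewed records of carcinogenicity and related test outcomes (mutagenicity, tumor promotion/inhibition) compiled from published and report sources, historical span 1985-2011, not updated.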

Structure (SMILES): CC(CN1CC(=O)NC(=O)C1)N1CC(=O)NC(=O)C1 (stereo unspecified)
- carcinogen call (Species: MOUSE, Strain/Sex: B6C3F1/FEMALE, Route: INTRAPERITONEAL, Dose: 0, 40, 80 MG/KG IN BUFFERED SALINE 3/WK FOR 52 WK, Dose: 0, 40, 80 MG/KG IN BUFFERED SALINE 3/WK FOR 52 WK, Tumor Site: Type of Lesion: LYMPHATIC SYSTEM: HISTIOCYTIC LYMPHOMA): active; positive
- carcinogen call (Species: MOUSE, Strain/Sex: B6C3F1/MALE, Route: INTRAPERITONEAL, Dose: 0, 40, 80 MG/KG IN BUFFERED SALINE 3/WK FOR 52 WK, Dose: 0, 40, 80 MG/KG IN BUFFERED SALINE 3/WK FOR 52 WK): inactive; negative
- carcinogen call (Species: RAT, Strain/Sex: SPRAGUE-DAWLEY/FEMALE, Route: INTRAPERITONEAL, Dose: 0, 48, 96 MG/KG IN BUFFERED SALINE 3/WK FOR 52 WK, Dose: 0, 48, 96 MG/KG IN BUFFERED SALINE 3/WK FOR 52 WK, Tumor Site: Type of Lesion: UTERUS: ADENOCARCINOMA (NOS)): active; positive
- carcinogen call (Species: RAT, Strain/Sex: SPRAGUE-DAWLEY/MALE, Route: INTRAPERITONEAL, Dose: 0, 48, 96 MG/KG IN BUFFERED SALINE 3/WK FOR 52 WK, Dose: 0, 48, 96 MG/KG IN BUFFERED SALINE 3/WK FOR 52 WK): inactive; negative

Structure (SMILES): N[C@@H](CCC(=O)NNc1ccc(CO)cc1)C(=O)O
- carcinogen call (Species: MOUSE, Strain/Sex: SWISS/FEMALE, Route: SUBCUTANEOUS, Dose: 0, 100 UG IN 0.01 ML PHYSIOLOGICAL SALINE 1/WK FOR 5 WK (STUDY DURATION: LIFETIME)): inactive; negative
- carcinogen call (Species: MOUSE, Strain/Sex: SWISS/FEMALE, Route: SUBCUTANEOUS, Dose: 0, 100 UG IN 0.01 ML PHYSIOLOGICAL SALINE ONCE (STUDY DURATION: LIFETIME)): inactive; negative
- carcinogen call (Species: MOUSE, Strain/Sex: SWISS/MALE, Route: SUBCUTANEOUS, Dose: 0, 50 UG IN 0.01 ML PHYSIOLOGICAL SALINE ONCE (STUDY DURATION: LIFETIME)): inactive; negative
- carcinogen call (Species: MOUSE, Strain/Sex: SWISS/MALE, Route: SUBCUTANEOUS, Dose: 0, 100 UG IN 0.01 ML PHYSIOLOGICAL SALINE 1/WK FOR 5 WK (STUDY DURATION: LIFETIME)): inactive; negative

Structure (SMILES): COc1ccc(C(=O)Nc2c(Cl)cncc2Cl)cc1OC1CCCC1
- carcinogen call (Species: RAT, Strain/Sex: SPRAGUE-DAWLEY/FEMALE, Route: INHALATION, Dose: 0, 0.125, 0.5, 1.0 MG/KG BW/D 1 HR/D IN A DRY-POWDER FORMULATION WITH LACTOSE VEHICLE USING A NOSE-ONLY AEROSOL EXPOSURE, Dose: 0, 0.125, 0.5, 1.0 MG/KG BW/D 1 HR/D IN A DRY-POWDER FORMULATION WITH LACTOSE VEHICLE USING A NOSE-ONLY AEROSOL EXPOSURE, Tumor Site: Type of Lesion: NASAL OLFACTORY REGION: TUMORS): active; positive
- carcinogen call (Species: RAT, Strain/Sex: SPRAGUE-DAWLEY/MALE, Route: INHALATION, Dose: 0, 0.125, 0.5, 1.0 MG/KG BW/D 1 HR/D IN A DRY-POWDER FORMULATION WITH LACTOSE VEHICLE USING A NOSE-ONLY AEROSOL EXPOSURE, Dose: 0, 0.125, 0.5, 1.0 MG/KG BW/D 1 HR/D IN A DRY-POWDER FORMULATION WITH LACTOSE VEHICLE USING A NOSE-ONLY AEROSOL EXPOSURE, Tumor Site: Type of Lesion: NASAL OLFACTORY REGION: TUMORS): active; positive

Structure (SMILES): CN(C)P(=O)(N(C)C)N(C)C
- carcinogen call (Species: RAT, Route: INHALATION, Tumor Site: Type of Lesion: NASAL CAVITY): active; positive
- carcinogen call (Species: RAT, Strain/Sex: STRAIN-CD/MALE,FEMALE, Route: INHALATION, Dose: 0, 10, 50, 100, 400, 4000 PPB FOR 6-24 MO (STUDY DURATION: 2 YR), Dose: 0, 10, 50, 100, 400, 4000 PPB FOR 6-24 MO (STUDY DURATION: 2 YR), Tumor Site: Type of Lesion: NASAL CAVITY: EPIDERMOID CARCINOMA): active; positive
- carcinogen call (Species: RAT, Strain/Sex: STRAIN-CD/MALE,FEMALE, Route: INHALATION, Dose: 0, 10, 50, 100, 400, 4000 PPB FOR 6-24 MO, STUDY DURATION: 24-25 MO, Dose: 0, 10, 50, 100, 400, 4000 PPB FOR 6-24 MO, STUDY DURATION: 24-25 MO, Tumor Site: Type of Lesion: NASAL CAVITY: SQUAMOUS CELL PAPILLOMA, EPIDERMOID CARCINOMA, NASAL CAVITY (ADENOID): SQUAMOUS CELL CARCINOMA): active; positive

Structure (SMILES): CCSCCC(N)C(=O)O (stereo unspecified)
- carcinogen call (Species: RAT, Strain/Sex: F344/MALE, Route: ORAL, Dose: 0, 0.05% IN METHYL-DEFICIENT DIET FOR 8 MO, STUDY DURATION: 20 MO, Dose: 0, 0.05% IN METHYL-DEFICIENT DIET FOR 8 MO, STUDY DURATION: 20 MO, Tumor Site: Type of Lesion: LIVER: HEPATOCELLULAR CARCINOMA): active; positive
- carcinogen call (Species: RAT, Strain/Sex: F344/MALE, Route: ORAL, Dose: 0.25% IN DIET FOR 24 WK, Tumor Site: Type of Lesion: LIVER): active; positive
- carcinogen call (Species: RAT, Strain/Sex: OSBORNE-MENDEL/MALE,FEMALE, Route: ORAL, Dose: 0.25% IN BASAL DIET FOR 8-9 MO, Tumor Site: Type of Lesion: LIVER: CARCINOMA): active; positive
- carcinogen call (Species: RAT, Strain/Sex: SPRAGUE-DAWLEY, Route: ORAL, Dose: 0.25% IN DIET FOR 8 MO, Tumor Site: Type of Lesion: LIVER: CARCINOMA): active; positive
- carcinogen call (Species: RAT, Strain/Sex: WISTAR/MALE,FEMALE, Route: ORAL, Dose: 0.25% IN BASAL DIET FOR 8 MO THEN STOCK DIET FOR 2 MO, Tumor Site: Type of Lesion: LIVER: CARCINOMA): active; positive

Structure (SMILES): COc1c2occc2cc2ccc(=O)oc12
- carcinogen call (Species: RAT, Strain/Sex: F344/F, Route: GAVAGE, Dose: 0, 37.5, 75 MG/KG IN CORN OIL 5D/WK FOR 103 WK (STUDY DURATION: 106 WK), Dose: 0, 37.5, 75 MG/KG IN CORN OIL 5D/WK FOR 103 WK (STUDY DURATION: 106 WK)): inactive; negative
- carcinogen call (Species: RAT, Strain/Sex: F344/M, Route: GAVAGE, Dose: 0, 37.5, 75 MG/KG IN CORN OIL 5D/WK FOR 103 WK (STUDY DURATION: 106 WK), Dose: 0, 37.5, 75 MG/KG IN CORN OIL 5D/WK FOR 103 WK (STUDY DURATION: 106 WK), Tumor Site: Type of Lesion: SUBCUTANEOUS TISSUE: FIBROMA, SUBCUTANEOUS TISSUE: FIBROMA OR SARCOMA, LUNG: ALVEOLAR/BRONCHIOLAR ADENOMA, KIDNEY: TUBUL, Tumor Site: Type of Lesion: SUBCUTANEOUS TISSUE: FIBROMA, SUBCUTANEOUS TISSUE: FIBROMA OR SARCOMA, LUNG: ALVEOLAR/BRONCHIOLAR ADENOMA, KIDNEY: TUBUL): active; positive

Structure (SMILES): CCC1(c2ccccc2)C(=O)NC(=O)NC1=O
- carcinogen call (Species: MOUSE, Strain/Sex: 6HF1/MALE, Route: ORAL, Dose: 0, 0.05% IN BASAL DIET FOR 104 WK (STUDY DURATION: 104 WK), Tumor Site: Type of Lesion: LIVER: TUMOR): active; positive

Structure (SMILES): CCCCN(CCCC)N=O
- carcinogen call (Species: GUINEA PIG, Route: ORAL, Tumor Site: Type of Lesion: LIVER): active; positive
- carcinogen call (Species: HAMSTER, Route: GAVAGE, Tumor Site: Type of Lesion: LUNG, RESPIRATORY TRACT, TRACHEA, FORESTOMACH, Tumor Site: Type of Lesion: LUNG, RESPIRATORY TRACT, TRACHEA, FORESTOMACH): active; positive
- carcinogen call (Species: HAMSTER, Route: INTRAPERITONEAL, Tumor Site: Type of Lesion: RESPIRATORY TRACT): active; positive
- carcinogen call (Species: HAMSTER, Route: SUBCUTANEOUS, Tumor Site: Type of Lesion: TRACHEA, URINARY BLADDER, FORESTOMACH, RESPIRATORY TRACT, Tumor Site: Type of Lesion: TRACHEA, URINARY BLADDER, FORESTOMACH, RESPIRATORY TRACT): active; positive
- carcinogen call (Species: MOUSE, Route: INTRAVENOUS, Tumor Site: Type of Lesion: HEMATOPOIETIC SYSTEM (LEUKEMIA)): active; positive
- carcinogen call (Species: MOUSE, Route: ORAL, Tumor Site: Type of Lesion: ESOPHAGUS, FORESTOMACH, LIVER, URINARY BLADDER, Tumor Site: Type of Lesion: ESOPHAGUS, FORESTOMACH, LIVER, URINARY BLADDER): active; positive
- carcinogen call (Species: MOUSE, Route: SUBCUTANEOUS, Tumor Site: Type of Lesion: URINARY BLADDER, LUNG): active; positive
- carcinogen call (Species: RABBIT, Route: SUBCUTANEOUS, Tumor Site: Type of Lesion: URINARY BLADDER): active; positive
- carcinogen call (Species: RAT, Route: ORAL, Tumor Site: Type of Lesion: ESOPHAGUS, LIVER, URINARY BLADDER, Tumor Site: Type of Lesion: ESOPHAGUS, LIVER, URINARY BLADDER): active; positive
- carcinogen call (Species: RAT, Route: SUBCUTANEOUS, Tumor Site: Type of Lesion: URINARY BLADDER, LUNG): active; positive
